Laboratory results: article PMC12040169 (PLOS Biology, 2025)

experiment: in vitro; conditions: human, hela cells, % viability

Row | Structure (SMILES) | viability at 28.5 h, 10 µM
1 | O=C(O)CCCCCNc1ncnc2sc3c(c12)CCCC3 [CBK077446] | 102%
2 | C/C(=N\NC(=O)c1ccccc1O)c1ccc(NC(=O)c2ccc(C)cc2)cc1 [CBK261251] | 84.7%
3 | COc1cc2cc(C(=O)N3CCN(Cc4ccc5c(c4)OCO5)CC3)c(=O)oc2cc1OC [CBK074790] | 102%
4 | CC(C)(C)c1ccc(C(=O)Nc2cnn(CCCC(=O)O)c2)cc1 [CBK269929] | 94.2%
5 | COc1ccc(-c2ccc(Nc3cccc(N(C)C)c3)nc2)cc1OC [CBK037606] | 90%
6 | Cc1cc(C(=O)N2CCN(c3ncccn3)CC2)n[nH]1 [CBK144526] | 111%
7 | O=C1NC2(CCCCC2)C(=O)N1c1cccc(Cl)c1 [CBK287969] | 94.3%
8 | O=C(NCCc1ccccc1)c1c(NC(=O)C2COc3ccccc3O2)sc2c1CCCC2 (centres unmarked) [CBK265522] | 89.8%
9 | Cc1cccc(OCc2nc3c4c5c(sc4ncn3n2)CCCCC5)c1C [CBK265284] | 104%
10 | COc1cc(C)c(C)cc1S(=O)(=O)n1cnc2ccccc21 [CBK287578] | 89.2%
11 | O=C(c1cc(F)c(F)cc1F)N1CCC2(CCCNC2)C1 (centres unmarked) [CBK137068T] | 87%
12 | CCN(CC)C(=O)c1ccc(NS(=O)(=O)c2ccc(-c3ccccc3)cc2)cc1 [CBK034395] | 97.5%
13 | OCC1CCCN1c1nccnc1-c1cccnc1 (centres unmarked) [CBK089049] | 101%
14 | CC1CN(Cc2nc3c(c(=O)n(C)c(=O)n3C)n2CCCO)CC(C)O1 (centres unmarked) [CBK269298] | 99%
15 | CC(C)CN(C)CC(=O)NC1(c2ccccc2)CCC1 [CBK067455T] | 111%
16 | CSC1=Nc2cc(Cl)ccc2SCC1 [CBK019829] | 98.1%
17 | Cc1csc(N2CCC(Nc3cc(CO)ccc3Cl)CC2)n1 [CBK306440] | 89.7%
18 | COc1ccc(CC(=O)Nc2nc(OC)cnc2/C=C\c2ccccc2)cc1 [CBK145224] | 98.7%
19 | O=C(Nc1ccc(F)cc1)c1c(NS(=O)(=O)Cc2ccccc2[N+](=O)[O-])sc2c1CCCC2 [CBK028654] | 85.3%
20 | Cc1noc(C)c1NC(=O)c1ccc2ccccc2n1 [CBK200309] | 101%
21 | Cc1ccc(CCC(=O)N2CCNCC2C)c(C)c1 (centres unmarked) [CBK304481] | 90%
22 | CCN(CC)C(=O)c1ccc(-n2ccnc2)c(-n2cccc2)c1 [CBK285371] | 86.3%

Row | Structure (SMILES) | viability at 28.5 h, 10 µM
23 | CCOc1ccccc1CCNS(=O)(=O)c1ccc(Cl)c(Cl)c1 [CBK043610] | 95.5%
24 | CS(=O)(=O)N(CC(=O)Nc1ccc2c(c1)OCO2)c1ccc(Oc2ccccc2)cc1 [CBK263989] | 91.5%
25 | CCc1nc2ccc(C(=O)Nc3ccc(NC(C)=O)cc3)cn2c1N(C)C(=O)Cc1ccccc1 [CBK146855] | 95.3%
26 | COC(=O)CCN(C)CCC(=O)OC [CBK264539C] | 95.4%
27 | CC(C)c1nccn1-c1ccc(NC(=O)CCCn2ccnc2)cc1 [CBK281380] | 93%
28 | Cc1nc(Nc2c(Cl)cc(S(N)(=O)=O)cc2Cl)sc1C(=O)Nc1ccccc1 [CBK265335] | 106%
29 | O=C(Nc1ccc2ncccc2c1)c1cccc(F)c1Cl [CBK159800] | 85.9%
30 | CSCCC(NC=C1C(=O)CC(C)(C)CC1=O)C(=O)O (centres unmarked) [CBK261311] | 92.9%
31 | COc1cccc(C(=O)N2CCC(NC(=O)c3ccc(C(F)(F)F)cc3)CC2)c1 [CBK155022] | 104%
32 | CN1CCC[C@H]1C(=O)Nc1cccc2cc[nH]c12 [CBK160098] | 104%
33 | COc1ccc(Cl)cc1C(=O)Nc1cnn(CCCC(=O)O)c1 [CBK269855] | 80.7%
34 | C=CCNC(=O)C1(Cc2ccccc2-c2cccnc2)CCOCC1 [CBK285217] | 109%
35 | c1ccc2c(c1)nnn2CNCn1nnc2ccccc21 [CBK261114] | 85.4%
36 | COc1c(C)cccc1C(=O)N1CCC(c2cc3cnccc3[nH]2)CC1 [CBK283460] | 89.9%
37 | Cc1ccc(C(=O)NC[C@H]2O[C@@H](CC(=O)N3CCOCC3)[C@H](O)[C@@H]2O)cc1 [CBK288925] | 85.5%
38 | COC(=O)Nc1ccccc1N1CCN(CCCCN2CCN(c3ccccc3)C2=O)CC1 [CBK024372C] | 91.8%
39 | CC1CCN(S(=O)(=O)c2ccc(Cl)c(C(=O)Nc3ccc(C(=O)O)cc3)c2)CC1 [CBK265170] | 111%
40 | CCCC(=O)N1CCC(Cc2ccc(-c3cccc(C)c3)cc2)(C(=O)NC)CC1 [CBK285786] | 104%
41 | COc1ccc(CN2CCCN(S(=O)(=O)c3ccc(C(=O)c4ccccc4)cc3)CC2)cc1F [CBK062855] | 97.7%
42 | C(=C/c1ccccc1)/C=N/c1ccc2nc(-c3ccc(/N=C/C=C/c4ccccc4)cc3)[nH]c2c1 [CBK261656] | 87.9%
43 | CN1CCc2c(sc3c2C(=O)NC(c2ccco2)N3)C1 (centres unmarked) [CBK287277] | 99.4%
44 | CCC(Sc1nc2ccc(F)cc2[nH]1)C(=O)O (centres unmarked) [CBK287174] | 106%

Row | Structure (SMILES) | viability at 28.5 h, 10 µM
45 | O=c1c(O)c(-c2ccc(F)cc2)oc2ccccc12 [CBK288369] | 72.4%
46 | O=C(O)c1ccccc1C(=O)N1CCN(c2ccc([N+](=O)[O-])cc2)CC1 [CBK287181] | 87.7%
47 | Cc1ccc2c(C)c(-c3cncn3C(C)CN3CCOCC3)oc2c1 (centres unmarked) [CBK281796] | 107%
48 | Cc1ccc(OCCNC(=O)C(C)Cn2cccn2)cc1 (centres unmarked) [CBK283252] | 111%
49 | CC(C)(C)c1nc(COc2ccc3nonc3c2)no1 [CBK005831] | 91.8%
50 | CC(C)CNc1nc(-c2cc(C(F)(F)F)cc(C(F)(F)F)c2)cnc1N [CBK063708] | 85.7%
51 | CCN(CC)CCN1CCN(c2cc(-c3cccnc3)ncn2)CC1 [CBK036957] | 94.8%
52 | NC(=O)c1ccnc(Cl)c1 [CBK089827] | 96%
53 | Cc1cccc(CN2CCC(NC(=O)c3cccc4nn[nH]c34)CC2)c1 [CBK305411] | 92.1%
54 | O=C(O)c1ccc(CNCc2ccc(-c3ccc(F)cc3)o2)cc1 [CBK269622C] | 90.9%
55 | c1cc(-c2nccnc2OC2CCCCC2)ccn1 [CBK106727] | 87.8%
56 | NS(=O)(=O)c1ccccc1Sc1ccccc1 [CBK020524] | 89%
57 | CN1CCN(CCOC(=O)N2CCN(c3cccc(C(F)(F)F)c3)CC2)CC1 [CBK115940C] | 103%
58 | COc1ccc(Nc2nc(-c3ccccc3)c(C)s2)c(OC)c1 [CBK131709] | 106%
59 | Cc1ccc2nc(C)cc(NC(=O)c3ccncc3)c2c1 [CBK287801] | 81.5%
60 | CCOC(=O)c1sc(NC(=O)Nc2cccc(Cl)c2)c(C(N)=O)c1C [CBK262658] | 107%
61 | CC1CCCCC12NC(=O)N(Cc1nnc(-c3cccs3)o1)C2=O (centres unmarked) [CBK306205] | 82.9%
62 | CS(=O)(=O)c1ccc(-c2ccc3c(c2)COC(C2CCN(C(=O)OCc4ccccc4)CC2)O3)cc1 (centres unmarked) [CBK144643] | 87.9%
63 | Fc1ccccc1Nc1nc(-c2ccncc2)cs1 [CBK267216] | 103%
64 | COc1ccc(CCN(C)C(=O)CCCc2cc3ccccc3[nH]2)cc1OC [CBK051152] | 93.7%
65 | O=[S+]([O-])(c1ccccc1)N1CCC(N(CCc2ccccc2)Cc2ccccc2)CC1 [CBK264617G] | 102%
66 | CCN(CC)C(=O)CN1CCC(Oc2nccnc2OCCN2CCOCC2)CC1 [CBK082928] | 93.4%

Row | Structure (SMILES) | viability at 28.5 h, 10 µM
67 | O=C(Nc1ccccc1)c1cccc(S(=O)(=O)NCc2ccncc2)c1 [CBK269980] | 102%
68 | O=C(c1cccnc1)C1CCN(C(=O)CC2CC3CCC2C3)CC1 (centres unmarked) [CBK283530] | 95.1%
69 | Cn1cc(CN2CCOC(c3nc(C(C)(C)C)cs3)C2)nn1 (centres unmarked) [CBK304783] | 90.5%
70 | CN1CCN(c2ccc(NC(=O)c3cccc(Br)c3)cc2)CC1 [CBK266140] | 97.5%
71 | CN(CC1(C)COC1)C(=O)Cc1cccc2cccnc12 [CBK281963] | 91.7%
72 | COc1cccc2ncn(CCCn3ccnn3)c(=O)c12 [CBK306650] | 103%
73 | O=C(NC(c1ccc(-c2ccccc2)cc1)c1cnccn1)C1CCN(CCc2ccc(F)cc2)CC1 (centres unmarked) [CBK147981] | 92.6%
74 | COc1ccc(F)c(CN(CC2CCNCC2)C(=O)Nc2c(C)noc2C)c1 [CBK049811] | 112%
75 | O=C(Cc1c[nH]c2ccccc12)N1CCC2(CCCN(Cc3cc(=O)[nH]c(=O)[nH]3)C2)C1 (centres unmarked) [CBK132049] | 102%
76 | Cc1ccc(-c2noc(CN3CCN(c4ccccn4)CC3)n2)cc1 [CBK266457] | 95.7%
77 | CC(=O)NC(NC(=S)Nc1sc2c(c1C(N)=O)CCCC2)C(Cl)(Cl)Cl (centres unmarked) [CBK261054] | 101%
78 | O=C(Nc1ccc(Cl)cc1)c1ccc(N2CCN(Cc3ccccc3)CC2)c([N+](=O)[O-])c1 [CBK264422] | 103%
79 | CC(C)(C)C1CCC(OC(=O)Cn2nnc3ccccc3c2=O)CC1 (centres unmarked) [CBK306408] | 88.9%
80 | COc1ccc(C)cc1S(=O)(=O)n1ccc2c(CN3CCC(N)CC3)cccc21 [CBK113312T] | 78.6%
81 | O=C(c1cccc(F)c1)N1CCC(O)(c2cccnc2F)CC1 [CBK284357] | 92.2%
82 | COc1ccc(N2C(=O)CC(N3CCN(C4CC(=O)N(c5ccc(OC)cc5)C4=O)CC3)C2=O)cc1 (centres unmarked) [CBK260907] | 88.2%
83 | Cc1ccc(-c2nccnc2OCCc2c[nH]c3ccccc23)cc1C [CBK106850] | 96%
84 | O=C1C=C([C@@H]2O[C@H](CO)[C@H](O)C2O)C(=O)N1 (some centres unmarked) [CBK201255] | 101%
85 | COc1ccc(N(C(C)C(=O)Nc2ccc(Cl)c(Cl)c2)S(C)(=O)=O)cc1 (centres unmarked) [CBK266872] | 114%
86 | O=C(Oc1ccccc1O)c1cccc(Cl)c1 [CBK090130] | 97.1%
87 | N#Cc1c(NC(=O)CSc2nc(-c3ccco3)cc(C(F)(F)F)n2)sc2c1CCCC2 [CBK266193] | 87%
88 | Cc1csc2c(C3CCN(C(=O)c4ccccn4)CC3)nc(C)n12 [CBK285244] | 77.4%

same assay, conditions: human, hela cells, % viability, bulk resorufin, single well

Row | Structure (SMILES) | viability at 28.5 h, 10 µM
89 | CCOC(=O)N1CCC2(CC1)Oc1ccc(-c3ccccc3)cc1O2 [CBK085500] | 101%
